Results published in a melting point compilation (Tetko et al.; mined from patent text by program, amines drawn as free bases though some values may be those of a salt).

With `CCC(C)(C)OC(=O)NC(C)(Cc1c[nH]c2ccccc12)C(=O)NCCCCc1ccccc1` (configuration not stated) the melting point was 127 to 130 °C.
In the case of `Cc1oc(-c2ccccc2)nc1CCOc1ccc(C[C@@H](C(=O)O)N2CCN(S(=O)(=O)c3ccc([N+](=O)[O-])cc3)CC2)cc1`, the melting point is reported as 205 to 207 °C.
Work on `CCN1C(=O)C(C)(C)C(=O)N(C)c2cc(CN(CCn3ccc4occc4c3=O)Cc3cc(C)nn3C)ccc21` yielded a melting point of 161 to 165 °C.
With `CC1CCCCN1C(=O)COc1nc(C(Cl)(Cl)Cl)ns1` (configuration not stated) the melting point was 88 °C.
For `CC(=O)NCc1ccc2c(Cl)cn(C3CCN(CCc4ccc(F)cc4)CC3)c2c1`, the melting point was 101 to 102 °C.
With `Cc1nc2ccc(N3C[C@H](C(N)c4nccs4)OC3=O)cc2s1` (some centres not stated) the melting point was 207 °C.
`COC(=O)CCC(=O)Nc1cccc(OCc2cc3ccccc3o2)c1` gave a melting point of 112 to 113 °C.
`CCCCNc1cc2c(cc1[N+](=O)[O-])OCO2` showed a melting point of 137 °C.
Work on `Cc1c(N2C[C@@H]3CCCN[C@@H]3C2)c(F)cc2c(=O)c(C(=O)O)cn([C@@H]3C[C@@H]3F)c12` yielded a melting point of 244 to 245 °C.
`CCOCCOc1ccc(C(C)C)c(NC(=O)CN2CCN(CCSc3nc4ccccc4o3)CC2)c1C(C)C` gave a melting point of 100 to 103 °C.
For `CCN1CCc2ccc(Nc3ncc(Cl)c(NCCNS(C)(=O)=O)n3)cc2CC1`, the melting point was 146 °C.
For `Cc1nc(N)nc(N)c1N1CCN(c2ccc(C#N)cc2)CC1`, the melting point was > 300 °C.
`COC(=O)CN(C)CC(=O)Nc1cccc2c1C(=O)c1c(NC(=O)CN(C)CC(=O)OC)cccc1C2=O` gave a melting point of 129 to 130 °C.
Work on `Cc1nc(CC2CCc3c(C)c4ccccc4n3C2=O)c(C)[nH]1` (configuration not stated) yielded a melting point of 219 to 221 °C.
For `CCc1cccc(CC)c1NC(=O)NC1CCC(c2ccccc2)CC1` (configuration not stated), the melting point was 247 to 249 °C.
With `COc1ccc(N2CCN(c3cc4c(cc3-c3ccc(C)cc3)OC(C)(C)C4)CC2)cc1` the melting point was 187 to 190 °C.
For `O=C(NCC1CCCCCC1)NCC1CCCCCC1`, the melting point was 106 to 108 °C.
For `CCCN1CCCC2Cc3nc(NC(C)=O)sc3CC21` (configuration not stated), the melting point was > 200 °C.
For `SCC1=NC2CCCCC2N1` (configuration not stated), the melting point was 125 to 129 °C.
With `CC1=NN(C(=O)NS(=O)(=O)c2ncccc2C(F)(F)F)C(c2ccccc2)C1` (configuration not stated) the melting point was 185 to 187 °C.
`Cc1ccc(C(=O)Nc2cc(-c3cccnc3)cc(C(F)(F)F)c2)cc1Nc1nccc(-c2cccnc2)n1` showed a melting point of 275 to 279 °C.
Work on `CC(=O)C1=Nc2cc3c(c(C)c2=C1C)N=c1ccccc1=3` yielded a melting point of 258 to 260 °C.
`CCN(CC)[C@@H]1CCC[C@H]1Nc1ccnc2cc(Cl)ccc12` (racemic) showed a melting point of 186 to 190 °C.
With `CC(CCC(=O)C(C)(C)O)C1CCC2C3=CC=C4CC(O)CCC4(C)C3CCC21C` (configuration not stated) the melting point was 150 to 152 °C.
In the case of `O=C(Nc1ccc(Cl)c(Cl)c1)ONC1=Nc2ccc([N+](=O)[O-])cc2C(c2ccccc2Cl)=NC1`, the melting point is reported as 190 to 192 °C.
With `O[C@@H]1CCc2cc(F)c(F)cc2C1` the melting point was 88 to 92 °C.
In the case of `CCOC(=O)c1cnc2c3ccccc3c(OC)cn2c1=O`, the melting point is reported as 190 to 193 °C.
Molecule `Cc1nc(CN(C)C)n(-c2ccc(Cl)cc2C(=O)c2ccccc2Cl)c1CO` has a melting point of 164 to 166 °C.
For `COC(=O)CC(=O)c1ccccc1OCc1ccccc1C`, the melting point was 38 to 42 °C.
With `CC(=O)N=c1sccn1CC(=O)c1cccc(NC(C)=O)c1` the melting point was 224 to 226 °C.
In the case of `C=CCOC(=O)c1c(C)nc2c(cnn2CCC#CC)c1N`, the melting point is reported as 114 to 115 °C.
In the case of `CC(C)C[C@H](NC(=O)OC(C)(C)C)[C@H](O)c1nccs1`, the melting point is reported as 121 to 122 °C.
In the case of `O=C(NC(Cc1ccccc1)C(=O)O)c1ccccc1O` (configuration not stated), the melting point is reported as 52 to 53 °C.
`Nc1nc2c(s1)CCCc1ccc(F)cc1-2` gave a melting point of 270 °C.
`COc1ccnc2c1c(C(C)=O)cn2C` showed a melting point of 79 to 81 °C.
For `CO[Si]1(OC)CCCNCCN1`, the melting point was 61 to 62 °C.
With `CS(=O)c1cc(CCC(=O)O)nc(-c2nc(=O)c3ccccc3s2)c1` (configuration not stated) the melting point was 266 °C.
`Cc1c(N)noc1C(F)(F)C(F)(F)F` gave a melting point of 32 to 34 °C.
For `COc1cc2c(cc1OC)CN(CC(O)c1ccc([N+](=O)[O-])cc1)CC2` (configuration not stated), the melting point was 130 °C.
`CC1(C(=O)NCc2cccs2)CC1` showed a melting point of 70 to 71 °C.
For `Cc1nc(Cl)c([N+](=O)[O-])c(NCCNC(=O)OC(C)(C)C)c1C`, the melting point was 110 to 112 °C.
For `NC(=O)C1=CCNCC1`, the melting point was 104 to 106 °C.
`COc1ccc2ncc(N)c(Nc3ccccc3Cl)c2c1` gave a melting point of 120 to 123 °C.
`OC(C1=NCC2CCCCN12)(c1ccccc1)c1ccccc1` (configuration not stated) showed a melting point of 131 to 133 °C.
`CC(=O)N1CCN(c2ccc(-c3ccn[nH]3)cc2)CC1` showed a melting point of 257 to 259 °C.
With `O=C(OC1CCN(Cc2ccccc2)CC1)c1ccccc1Br` the melting point was 69 to 70 °C.
Work on `Nc1cc(C(=O)O)cc(S(N)(=O)=O)c1Nc1ccc(Cl)cc1` yielded a melting point of 273 to 274 °C.
With `Cc1cc(Nc2ccnc(Cl)n2)ccc1F` the melting point was 130 to 131 °C.
Molecule `C1CNCCCNCCCNCCCNC1` has a melting point of 84 to 86 °C.
In the case of `CCOC(=O)c1ccc(OCCCCCCCCCCCCCCOc2ccc(Cl)cc2)cc1`, the melting point is reported as 72.5 to 73.5 °C.
`Nc1nc2c(s1)CC(NC(=O)CNC(=O)[C@@H](Cc1ccccc1)NS(=O)(=O)Cc1ccccc1)CC2` (some centres not stated) showed a melting point of 119 to 122 °C.
Molecule `Cc1ccc(-c2cnc([C@H]3CC[C@H](C#N)CC3)nc2)cc1` has a melting point of 172 °C.
With `Cc1cc(=O)c(O)co1` the melting point was 152 to 153 °C.
Molecule `Oc1cccc(/C=C/c2ccccc2)c1` has a melting point of 125 to 126 °C.
Molecule `O=C(Nc1ccc2[nH]c(=O)oc2c1)C(=O)N1CCC(Cc2ccc(O)cc2)CC1` has a melting point of 235 to 239 °C.
Work on `O=C(OCc1ccccc1)C1C(=O)N(Cc2ccc(Cl)c(Cl)c2)C(=O)c2cccn21` (configuration not stated) yielded a melting point of 104 to 106 °C.
Molecule `COC(=O)c1ccc2[nH]c3cnc(C(=O)OC)c(C)c3c2c1` has a melting point of 199 to 204 °C.
`CC(O)=C(C#N)CC(=O)Nc1ccc(OCCCI)cc1` gave a melting point of 149 °C.
Molecule `CCCNC1=NS(=O)(=O)c2c(sc(C)c2C#N)N1C(=O)OCC` has a melting point of 175 to 179 °C.
For `COc1cccc(OC)c1C(=O)P(=O)(CC(C)C)C(=O)c1c(C)cc(C)cc1C` (configuration not stated), the melting point was 105 to 106 °C.
`CCCCn1ncc2cc(/C=C/c3ccc(O)cc3)ccc2c1=O` gave a melting point of 225 to 230 °C.
For `NCCOc1c(Cl)ccc2c1c1cccc3c1n2C(c1ccccc1)CO3` (configuration not stated), the melting point was 127 to 128 °C.
In the case of `CCOC(=O)C(C#N)=CNc1ncccc1C`, the melting point is reported as 139 to 143 °C.
Work on `COc1cc(N2CCN(C(=O)c3ccc(Nc4ccnc5cc(C(F)(F)F)ccc45)cc3)CC2)nc(OC)n1` yielded a melting point of 260 to 262 °C.
With `CCOC(=O)c1cn2c(n1)C=NC=C1C=CCC=C12` the melting point was 134 to 135 °C.
For `Cc1cc(C)c(C(=O)c2ccccc2C)c(O)c1`, the melting point was 65 to 67 °C.
With `CN(Cc1ccc(OC(F)(F)F)cc1)C(=O)OC[C@@]1(C)Cn2cc([N+](=O)[O-])nc2O1` the melting point was 123 to 124 °C.
Work on `Cc1cc(C)c2nc(C)n(Cc3ccc(NCC4CCN(C5CCN(C)CC5)CC4)cc3)c2n1` yielded a melting point of 118 to 120 °C.
Molecule `O=C1c2c(Cl)cccc2-n2cnc(-c3noc(CCl)n3)c2[C@@H]2CCN12` has a melting point of 211 to 212 °C.
With `O=C(O)CN[C@H]1CCN(c2ccc3c(NC(=O)CC4CCCCC4)c(Cl)ccc3n2)C1` the melting point was 257 to 259 °C.
`COc1c(N2CC(F)[C@](C)(N)C2)c(F)cc2c(=O)c(C(=O)O)cn([C@@H]3C[C@@H]3F)c12` (some centres not stated) gave a melting point of 160 to 163 °C.
In the case of `Oc1cccc(Cc2cnc3c(-c4cc(-c5ccccc5)cs4)cnn3c2O)c1`, the melting point is reported as 235 to 237 °C.
In the case of `CC(C)c1cc(CC2SCNC2=O)cc(C(C)C)c1O` (configuration not stated), the melting point is reported as 136 to 139 °C.
Work on `NC(=O)C(Nc1cccc2c1C(=O)CO2)c1c(Cl)cccc1Cl` (configuration not stated) yielded a melting point of 245 °C.
With `CN1CCN(CCCNc2nc(N)c(C(=O)c3ccc(Cl)s3)s2)CC1` the melting point was 184 °C.
`CN1CCC(=C2c3ccccc3COc3ccc(C#N)cc32)CC1` showed a melting point of 134 to 136 °C.
With `CCOC(=O)C(=O)CCc1ccc(OC)c(OC)c1` the melting point was 85 to 87 °C.
`COCCCn1nnnc1-c1cc(-c2cccc(C(F)(F)F)c2)c(O)cc1O` gave a melting point of 144 to 182 °C.
In the case of `OCC1OC(n2c(Cl)c(-c3ccsc3)c3cc(Cl)c(Cl)cc32)C(O)C1O` (configuration not stated), the melting point is reported as 152 to 153 °C.
Work on `Cc1sc(N2C(=O)c3ccccc3C2=O)c(C(=O)c2ccc(Cl)cc2)c1CN(C)Cc1ccccc1` yielded a melting point of 197 to 199 °C.
Molecule `CCNC(NC(C)=O)C(=O)NCc1ccccc1` (configuration not stated) has a melting point of 123 to 125 °C.
Molecule `O=C1Cc2ccccc2Oc2ccc(CC(O)(P(=O)(O)O)P(=O)(O)O)cc21` has a melting point of 228 °C.
Molecule `COC(=O)c1cccc(-c2nc(COc3ccc(CO)cc3)c(C)o2)c1` has a melting point of 105 to 106 °C.
With `CCOC(=O)c1nc(O)sc1C(C)=O` the melting point was 105 to 108 °C.
Work on `NC(=NO)c1ccc(-c2ccc(N)cc2)o1` yielded a melting point of 180 to 183 °C.
`Cc1cc(-n2cncn2)c2c(Cl)ccc(C)c2n1` showed a melting point of 117 to 118 °C.
In the case of `Nc1nc2ccccc2c2c1nc(CF)n2CC1(O)CCOC1` (configuration not stated), the melting point is reported as 169 to 171 °C.
`C=C(Nc1nc(-c2ccccc2)c(-c2nc3ccccc3c(=O)n2-c2ccccc2C)s1)c1ccco1` showed a melting point of 262 to 263 °C.
For `O=C(O)[C@@H]1C[C@@H](c2ccccc2)CN1C(=O)c1ccccc1Br`, the melting point was 146 to 147 °C.
Molecule `COc1ccc(N2CCOCC2)c2sc(NC(=O)C[C@H]3CC[C@@H](OC(C)=O)C3)nc12` (relative stereo) has a melting point of 172 to 173 °C.
`Oc1cccc2c1CC1C(C2)C1(Cl)Cl` (configuration not stated) gave a melting point of 89 to 93 °C.
`O=C1[C@H](O)[C@@H](O)C(=O)N1Cc1ccccc1` gave a melting point of 100 °C.
Molecule `O=C(O)CCn1c(=O)n(CCN2CCN(c3ccc(F)cc3)CC2)c(=O)c2cscc21` has a melting point of 202 to 203 °C.
For `CN(Cc1cccc2c1CN(C1CCC(=O)NC1=O)C2=O)C(=O)Nc1cccc(Cl)c1` (configuration not stated), the melting point was 193 to 195 °C.
Molecule `Cc1cc(C)nc(Oc2ccnc3cc(Cl)ccc23)n1` has a melting point of 104 to 105 °C.
For `N#CCS(=O)(=O)C=C1N(CCCN2CCCCC2)CCN1CCCN1CCCCC1`, the melting point was 105 to 107 °C.
`CCCCCCCCOc1ccc(-c2ncc(OC(=O)[C@@H](Cl)[C@@H](C)CC)cn2)c(F)c1F` showed a melting point of 66.2 °C.
Molecule `COc1cn(-c2ccc(-n3cccn3)cc2F)nc(C(=O)N(C)OC)c1=O` has a melting point of 187 to 189 °C.
`CCCC/C(=C\C=C\C(=O)O)c1cccc(OC)c1` showed a melting point of 77.5 to 78.5 °C.
Molecule `C=C(C)COc1ccc2c(C)cc(=O)oc2c1C(=O)C=Cc1ccccc1` has a melting point of 158 to 160 °C.
For `CCOC(=O)c1cnc2c(OCc3ccccc3)c(F)c(F)cc2c1O`, the melting point was 200 to 201 °C.
Molecule `CNC(=O)c1c(NC(=O)c2cc(C(F)(F)F)nn2-c2ncccc2Cl)ccc2ncccc12` has a melting point of 210 to 211 °C.
